Among the data in PubChem BioAssay (NCI) are TGI values, retold here.

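Cells were grown in 96-well plates and exposed to each compound for 48 hours at five concentrations; endpoints were interpolated linearly between bracketing concentrations, or set to the highest concentration if not reached. TGI marks complete inhibition of growth.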 Where only a bound is given, the exact number is not on record here.

Among the test systems are CAKI-1 renal; EKVX NSCLC; HCT-15 colon; HL-60(TB) leukemia; HOP-62 NSCLC; IGROV1 ovarian; M14 melanoma; MALME-3M melanoma; MDA-N; MOLT-4 leukemia; NCI-H522 lung; OVCAR-4 ovarian; RXF 393 renal; SF-539 CNS; SK-OV-3 ovarian; SNB-75 CNS; TK-10 renal; UACC-62 melanoma; UO-31 renal.
Holding throughout (experiment): growth of human tumour cells (NCI), 48 h

As to `N=C(N)c1ccc(-c2ccc(-c3ccc(C(=N)N)cc3)o2)cc1`, the TGI in the test on CAKI-1 renal is greater than 100 µM; in the test on EKVX NSCLC it was 91.6 µM; with HCT-15 colon, greater than 100 µM; with HL-60(TB) leukemia, greater than 100 µM; with HOP-62 NSCLC, greater than 100 µM; in the test with IGROV1 ovarian, greater than 100 µM. The TGI is greater than 100 µM in the test with M14 melanoma; greater than 100 µM in the test with MALME-3M melanoma; greater than 100 µM in the test with MDA-N; 77.5 µM in the test with MOLT-4 leukemia; greater than 100 µM with NCI-H522 lung; greater than 100 µM in the test on OVCAR-4 ovarian. Further, the TGI was greater than 100 µM in the test on RXF 393 renal; greater than 100 µM in the test on SF-539 CNS; greater than 100 µM in the test on SK-OV-3 ovarian; greater than 100 µM in the test on SNB-75 CNS; 63 µM in the test on TK-10 renal; greater than 100 µM in the test on UACC-62 melanoma. This molecule also displayed a TGI in the test on UO-31 renal of 68.1 µM.
Turning to `CC(C)(Cc1ccccc1)Cc1cc(O)ccc1O`, the TGI in the test with CAKI-1 renal was 35.1 µM; with EKVX NSCLC, 65.8 µM; in the test on HCT-15 colon, 39.8 µM; with HL-60(TB) leukemia, 4.8 µM; with HOP-62 NSCLC, 64.3 µM; with IGROV1 ovarian, greater than 100 µM. The TGI amounted to 37.4 µM in the test on M14 melanoma; 33.2 µM in the test with MALME-3M melanoma; 56.6 µM in the test with MDA-N; 49.5 µM with MOLT-4 leukemia; 17.1 µM in the test with NCI-H522 lung; 91.9 µM with OVCAR-4 ovarian. In addition, the TGI with RXF 393 renal stood at 28.9 µM; in the test with SF-539 CNS it was 27.1 µM; in the test on SK-OV-3 ovarian it was 71 µM; in the test on SNB-75 CNS, 68.1 µM; with TK-10 renal, 95.9 µM; in the test with UACC-62 melanoma it was 61.8 µM. The molecule further registered a TGI in the test on UO-31 renal of 26.3 µM.
Consider `CCNC(=O)Cc1nc2c(=O)[nH]cnc2n1C1OC(CO)C(O)C1O` (stereo not given), for which the TGI in the test with CAKI-1 renal, with EKVX NSCLC, in the test with HCT-15 colon, with HL-60(TB) leukemia, in the test with HOP-62 NSCLC and in the test on IGROV1 ovarian was greater than 100 µM throughout. In addition, the TGI in the test on M14 melanoma, with MALME-3M melanoma, with MDA-N, in the test on MOLT-4 leukemia, in the test with NCI-H522 lung and in the test on OVCAR-4 ovarian was greater than 100 µM each time. Moreover, the TGI in the test with RXF 393 renal, in the test with SF-539 CNS, with SK-OV-3 ovarian, in the test on SNB-75 CNS, in the test on TK-10 renal and with UACC-62 melanoma was greater than 100 µM each time. Moreover, the TGI in the test with UO-31 renal is greater than 100 µM.
In the case of `Cc1c(C)c(C)c(CSC(=N)N)c(C)c1C`, the TGI with CAKI-1 renal is 25.8 µM; with EKVX NSCLC, 28 µM; in the test with HCT-15 colon, 31.3 µM; in the test on HL-60(TB) leukemia it was 27.6 µM; with HOP-62 NSCLC it was 29.1 µM; with IGROV1 ovarian it was greater than 100 µM. Moreover, the TGI in the test with M14 melanoma was found to be 22.7 µM; with MALME-3M melanoma, 32.9 µM; with MDA-N it was 40.3 µM; in the test with MOLT-4 leukemia, 33 µM; in the test with NCI-H522 lung, 33 µM; with OVCAR-4 ovarian, 33.2 µM. Also, the TGI in the test with RXF 393 renal stood at 33.2 µM; with SF-539 CNS, 29.1 µM; in the test on SK-OV-3 ovarian, 34.2 µM; with SNB-75 CNS it was 29 µM; in the test on TK-10 renal it was 28.4 µM; in the test on UACC-62 melanoma, 24.2 µM. In the test on UO-31 renal, this molecule had a TGI of 20.2 µM.
Consider `COc1cc2c(cc1OC)C(=O)/C(=C/c1ccccc1)C2`, for which the TGI in the test with CAKI-1 renal is greater than 100 µM; in the test on EKVX NSCLC it was greater than 100 µM; in the test on HCT-15 colon, greater than 100 µM; in the test with HL-60(TB) leukemia, 50 µM; in the test with HOP-62 NSCLC it was greater than 100 µM; with IGROV1 ovarian, greater than 100 µM. Further, the TGI is greater than 100 µM in the test with M14 melanoma; greater than 100 µM with MALME-3M melanoma; greater than 100 µM with MDA-N; 43.9 µM in the test with MOLT-4 leukemia; greater than 100 µM in the test on NCI-H522 lung; greater than 100 µM in the test with OVCAR-4 ovarian. Besides, the TGI is greater than 100 µM with RXF 393 renal; greater than 100 µM with SF-539 CNS; greater than 100 µM with SK-OV-3 ovarian; 98.1 µM in the test with SNB-75 CNS; greater than 100 µM in the test with TK-10 renal; greater than 67.7 µM with UACC-62 melanoma. The molecule further displayed a TGI in the test on UO-31 renal greater than 100 µM.
